Values of other authors, collected in article PMC5742115, “Pharmacophore Modeling and in Silico/in Vitro Screening for Human Cytochrome P450 11B1 and Cytochrome P450 11B2 Inhibitors” (Frontiers in Chemistry, 2017).
Like-named read-outs stand apart in the source and are kept apart here.

Key:
[1] = tested on: CYP11B2; settings: reported activity, supplementary Table 1, read-out: CYP11B2 IC50, cited from earlier work
[2] = tested on: CYP11B1; settings: reported activity, supplementary Table 1, read-out: CYP11B1 IC50, cited from earlier work

CCOC(=O)c1cncn1[C@H](C)c1ccccc1 [CHEMBL681, Etomidate]
IC50 ([1]; ref Dorr et al., 1984): 0.1 nM
IC50 ([1]; ref Roumen et al., 2010): 1.7 nM

O=C1CCc2cc(-c3cccnc3)ccc2N1 [CHEMBL62811]
IC50 ([2]; ref Lucas et al., 2008b): 6750 nM
IC50 ([1]; ref Lucas et al., 2008b): 28 nM

O=c1c2ccccc2oc2c(Br)ccc(Cn3ccnc3)c12 [CHEMBL78322]
IC50 ([2]; ref Gobbi et al., 2013): 6.7 nM
IC50 ([1]; ref Gobbi et al., 2013): 8.5 nM

Cc1cncn1Cc1ccc(C#N)cc1 [CHEMBL162496]
IC50 ([2]; ref Roumen et al., 2010): 141 nM
IC50 ([1]; ref Roumen et al., 2010): 12 nM

Brc1ccc2c(c1)CC/C2=C/c1c[nH]cn1 [CHEMBL174579]
IC50 ([1]; ref Ulmschneider et al., 2005b): 10.3 nM

N#Cc1ccc2c(c1)CC/C2=C/c1ncc[nH]1 [CHEMBL175091]
IC50 ([2]; ref Ulmschneider et al., 2005b): 12.3 nM
IC50 ([1]; ref Ulmschneider et al., 2005b): 35.7 nM

Clc1ccc2c(c1)/C(=C/c1cnc[nH]1)CCC2 [CHEMBL175144]
IC50 ([1]; ref Ulmschneider et al., 2005b): 47.3 nM

Clc1ccc2c(c1)CC/C2=C\c1ccncc1 [CHEMBL175554]
IC50 ([2]; ref Ulmschneider et al., 2005a): 1520 nM
IC50 ([1]; ref Ulmschneider et al., 2005a): 18 nM

COc1ccc2c(c1)CC/C2=C/c1ccncc1 [CHEMBL175609]
IC50 ([1]; ref Ulmschneider et al., 2005a): 55 nM

Clc1ccc2c(c1)CC/C2=C/c1c[nH]cn1 [CHEMBL175688]
IC50 ([2]; ref Ulmschneider et al., 2005b): 19.5 nM
IC50 ([1]; ref Ulmschneider et al., 2005b): 3.7 nM

COc1cccc2c1/C(=C/c1cccnc1)CC2 [CHEMBL175791]
IC50 ([2]; ref Ulmschneider et al., 2005a): 955 nM
IC50 ([1]; ref Ulmschneider et al., 2005a): 27 nM

Clc1ccc2c(c1)CC/C2=C/c1ccncc1 [CHEMBL175799]
IC50 ([2]; ref Ulmschneider et al., 2005a): 301 nM
IC50 ([1]; ref Ulmschneider et al., 2005a): 36 nM

C(=C1/CCc2ccccc21)/c1ccncc1 [CHEMBL175962]
IC50 ([1]; ref Ulmschneider et al., 2005a): 8 nM

COc1ccc2c(c1)CCC/C2=C\c1ccncc1 [CHEMBL175979]
IC50 ([1]; ref Ulmschneider et al., 2005a): 22 nM

COc1ccc2c(c1)CC/C2=C/c1cccnc1 [CHEMBL176101]
IC50 ([2]; ref Ulmschneider et al., 2005a): 790 nM
IC50 ([1]; ref Ulmschneider et al., 2005a): 26 nM

Clc1cccc2c1CC/C2=C\c1cccnc1 [CHEMBL176287]
IC50 ([2]; ref Ulmschneider et al., 2005a): 304 nM
IC50 ([1]; ref Ulmschneider et al., 2005a): 9 nM

COc1ccc2c(c1)CC/C2=C\c1cccnc1 [CHEMBL176609]
IC50 ([2]; ref Ulmschneider et al., 2005a): 1450 nM
IC50 ([1]; ref Ulmschneider et al., 2005a): 34 nM

Brc1ccc2c(c1)CC/C2=C\c1cnc[nH]1 [CHEMBL177293]
IC50 ([2]; ref Ulmschneider et al., 2005a): 1940 nM
IC50 ([1]; ref Ulmschneider et al., 2005a): 37 nM
IC50 ([1]; ref Ulmschneider et al., 2005b): 92.8 nM

C(=C1/CCc2ccccc21)/c1cnc[nH]1 [CHEMBL177468]
IC50 ([2]; ref Ulmschneider et al., 2005b): 29.5 nM
IC50 ([1]; ref Ulmschneider et al., 2005b): 41 nM

C(=C1\CCc2ccccc21)/c1c[nH]cn1 [CHEMBL178036]
IC50 ([2]; ref Ulmschneider et al., 2005b): 6.1 nM
IC50 ([1]; ref Ulmschneider et al., 2005b): 11 nM

Fc1ccc2c(c1)CC/C2=C/c1ccncc1 [CHEMBL179144]
IC50 ([2]; ref Ulmschneider et al., 2005b): 34 nM
IC50 ([1]; ref Ulmschneider et al., 2005b): 29 nM

C(=C1\CCc2ccccc21)/c1ccncc1 [CHEMBL179149]
IC50 ([2]; ref Ulmschneider et al., 2005a): 931 nM
IC50 ([1]; ref Ulmschneider et al., 2005a): 18 nM

Brc1ccc2c(c1)CC/C2=C/c1ccncc1 [CHEMBL179222]
IC50 ([2]; ref Ulmschneider et al., 2005a): 484 nM
IC50 ([1]; ref Ulmschneider et al., 2005a): 56 nM

Fc1ccc2c(c1)CC/C2=C/c1c[nH]cn1 [CHEMBL179247]
IC50 ([2]; ref Ulmschneider et al., 2005b): 11.2 nM

Cc1ccc2c(c1)/C(=C\c1ccncc1)CC2 [CHEMBL192077]
IC50 ([1]; ref Ulmschneider et al., 2005a): 8 nM

COc1ccc2c(c1)CC/C2=C\c1cncs1 [CHEMBL192155]
IC50 ([1]; ref Ulmschneider et al., 2005a): 17 nM

CCOc1ccc2cc(-c3cccnc3)ccc2c1 [CHEMBL193343]
IC50 ([2]; ref Voets et al., 2005): 5420 nM
IC50 ([1]; ref Voets et al., 2005): 12 nM

COc1ccc2c(c1)CCC/C2=C/c1ccncc1 [CHEMBL193496]
IC50 ([1]; ref Ulmschneider et al., 2005a): 56 nM

Brc1ccc2cc(-c3cccnc3)ccc2c1 [CHEMBL193534]
IC50 ([2]; ref Voets et al., 2005): 2940 nM
IC50 ([1]; ref Voets et al., 2005): 15 nM

C(=C1/CC(c2ccccc2)c2ccccc21)/c1cccnc1 (stereo not drawn) [CHEMBL193555]
IC50 ([1]; ref Ulmschneider et al., 2005a): 3 nM

C(=C1/CCCc2ccccc21)/c1cccnc1 [CHEMBL193606]
IC50 ([2]; ref Ulmschneider et al., 2005a): 715 nM
IC50 ([1]; ref Ulmschneider et al., 2005a): 22 nM

Clc1ccc2c(c1)CC/C2=C/c1cccnc1 [CHEMBL193652]
IC50 ([2]; ref Ulmschneider et al., 2005a): 270 nM
IC50 ([1]; ref Ulmschneider et al., 2005a): 73 nM

c1ccc2cc(-c3cnco3)ccc2c1 [CHEMBL193653]
IC50 ([2]; ref Voets et al., 2005): 805 nM
IC50 ([1]; ref Voets et al., 2005): 12 nM

COc1cc2c(cc1OC)/C(=C/c1ccncc1)CCC2 [CHEMBL193858]
IC50 ([1]; ref Ulmschneider et al., 2005a): 11 nM

COc1ccc2ccc(-c3cccnc3)cc2c1 [CHEMBL193863]
IC50 ([1]; ref Pinto-Bazurco Mendieta et al., 2013): 68 nM

Fc1ccc2c(c1)CC/C2=C\c1cccnc1 [CHEMBL193997]
IC50 ([2]; ref Ulmschneider et al., 2005a): 311 nM
IC50 ([1]; ref Ulmschneider et al., 2005a): 7 nM

C/C(=C1/CCc2cc(F)ccc21)c1cccnc1 [CHEMBL194047]
IC50 ([2]; ref Ulmschneider et al., 2005b): 96 nM

Brc1ccc2c(c1)CC/C2=C\c1cccnc1 [CHEMBL194440]
IC50 ([2]; ref Ulmschneider et al., 2005a): 320 nM
IC50 ([1]; ref Ulmschneider et al., 2005a): 171 nM

COc1cc2ccccc2cc1-n1ccnc1 [CHEMBL194472]
IC50 ([2]; ref Voets et al., 2005): 81 nM
IC50 ([1]; ref Voets et al., 2005): 19 nM
